These results are taken from patent US20100287636A1, “COMPOSITIONS AND METHODS FOR INHIBITING INDUCIBLE T CELL KINASE (ITK) AND TREATING ASTHMA AND BRONCHIAL INFLAMMATIONS” (San Diego State University Foundation, dba San Diego State …, priority 2007, published 2010).

No end group written: not given here.

For orientation: Kd means the constant that tells how readily two partners part at equilibrium. Broadly, the inhibition is how much of the control response was suppressed. Lower therefore signals a response near the control.

One data set has as its target T1, SH3 domain of ITK (Mus musculus, UniProt Q03526).
T1 sequence (Q03526 177-237 limits assumed): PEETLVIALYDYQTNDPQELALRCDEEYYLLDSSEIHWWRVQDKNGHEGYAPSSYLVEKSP
The settings on record: chemical shift perturbation assays, reference (17); read-out: Kd of the in vitro interaction between peptide and the SH3 domain of ITK; cited from earlier work.

In a further data set the target is T2, ITK-SLP76 interaction (Homo sapiens, UniProt Q08881).
T2 construct: endogenous in cells; host or cells: Jurkat T cells
T2 sequence (Q08881 1-620): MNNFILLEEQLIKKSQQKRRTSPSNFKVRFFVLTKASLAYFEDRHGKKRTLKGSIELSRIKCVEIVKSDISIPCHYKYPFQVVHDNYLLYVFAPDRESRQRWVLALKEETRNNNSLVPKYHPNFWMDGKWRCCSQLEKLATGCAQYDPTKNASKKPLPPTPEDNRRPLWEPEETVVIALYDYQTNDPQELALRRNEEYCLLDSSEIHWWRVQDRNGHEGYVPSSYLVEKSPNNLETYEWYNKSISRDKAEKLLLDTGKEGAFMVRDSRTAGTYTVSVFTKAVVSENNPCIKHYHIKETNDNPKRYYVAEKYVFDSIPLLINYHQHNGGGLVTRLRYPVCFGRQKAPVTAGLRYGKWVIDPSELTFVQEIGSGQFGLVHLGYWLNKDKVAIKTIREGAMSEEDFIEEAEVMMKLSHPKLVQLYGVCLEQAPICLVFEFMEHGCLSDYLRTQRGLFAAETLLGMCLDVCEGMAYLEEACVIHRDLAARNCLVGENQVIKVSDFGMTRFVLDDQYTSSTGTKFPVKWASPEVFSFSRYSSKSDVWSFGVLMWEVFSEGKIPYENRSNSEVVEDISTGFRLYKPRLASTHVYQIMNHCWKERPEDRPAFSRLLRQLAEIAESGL
In words: inhibition of inducible ITK-SLP76 association in stimulated Jurkat cells (co-immunoprecipitation). It counts as cell-based. The procedure: (§1) FIG. 1. Inducible Association between ITK and SLP76: Jurkat T cells were stimulated through their TCR for various periods of time and then lysed. Lysates were treated with antibody to SLP-76 (IP: anti-SLP76) and the immune complexes were resolved by gel electrophoresis. The resolved proteins were transferred onto a membrane where ITK and SLP76 were visualized by probing with specific antibodies reactive with these proteins. First, ITK was probed (IB: anti-ITK) and subsequently SLP76 (IB: anti-SLP76). […] The interpretation is that ITK and SLP76 participate in a stimulation inducible signaling complex. Furthermore, the association of ITK and SLP76 in this complex is time dependent. It happens at one (1) minute post stimulation and then the two proteins dissociate.
(§2) FIG. 4. Inhibition of ITK-SLP76 inducible association by the polyArg-SLP76 peptide conjugate of the invention: We next addressed the important question of whether the presence of the exemplary SLP76 peptide of the invention disrupts the physical association between ITK and SLP76. Jurkat cells were stimulated as described under FIG. 1 above in the presence or absence of various concentrations of the exemplary Arg-conjugated SLP76 peptide of the invention. […] This index was calculated by correcting the ITK signals for the total of SLP 76 signal in each lane and then calculating the ratio over the non-stimulated control. […]

The target in data set [1] is T3, ITK (Mus musculus, UniProt Q03526).
T3 construct: endogenous in cells; host or cells: primary mouse splenic lymphocytes
T3 sequence (Q03526 1-625): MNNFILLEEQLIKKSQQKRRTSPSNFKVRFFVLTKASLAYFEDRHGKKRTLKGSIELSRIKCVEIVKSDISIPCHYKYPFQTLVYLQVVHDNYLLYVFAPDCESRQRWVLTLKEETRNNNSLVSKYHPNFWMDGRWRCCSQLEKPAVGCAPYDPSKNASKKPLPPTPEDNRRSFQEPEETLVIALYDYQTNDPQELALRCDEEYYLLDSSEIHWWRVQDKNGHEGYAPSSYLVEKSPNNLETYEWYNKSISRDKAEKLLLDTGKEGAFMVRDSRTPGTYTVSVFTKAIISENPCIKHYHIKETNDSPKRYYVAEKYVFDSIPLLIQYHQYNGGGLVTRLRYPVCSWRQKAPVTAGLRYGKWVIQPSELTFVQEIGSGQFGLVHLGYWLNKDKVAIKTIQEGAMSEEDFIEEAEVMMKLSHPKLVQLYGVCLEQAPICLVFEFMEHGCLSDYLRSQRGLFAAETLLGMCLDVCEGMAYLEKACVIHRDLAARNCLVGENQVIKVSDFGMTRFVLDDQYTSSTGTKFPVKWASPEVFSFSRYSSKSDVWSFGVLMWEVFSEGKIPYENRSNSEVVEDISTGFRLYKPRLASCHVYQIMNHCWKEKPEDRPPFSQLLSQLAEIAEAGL
In words: phosphorylation of ITK on Tyr 511 in mouse splenocytes (flow cytometry). It is filed as cell-based. The settings on record: text does not separate Jurkat and mouse splenocytes, read-out: peptide concentration for fifty percent inhibition of ITK phosphorylation. The text has this:
In view of the significant degree of ITK-SLP 76 inhibition mediated by the exemplary arginine-SLP 76 peptide conjugate of the invention, henceforth called R9-QQP, the next question was whether the exemplary R9-QQP peptide can inhibit the phosphorylation of ITK. This is important because it represents an accurate index of ITK activity; see e.g., referenced (14), below. Furthermore, the data described above have been performed by using the Jurkat T cell line. Even though this is a very useful cellular model for research, it is a leukemic cell line and thus, data obtained with this model should be confirmed in a more normal physiological substrate. Therefore, we also tested the effect of R9-QQP on primary mouse splenic lymphocytes.
(§3) FIG. 6. […] Following stimulation the cells were stained with specific anti-ITK phosphotyrosine antibodies obtained from a commercial source (BD Biosciences) and following the manufacturer's instructions for intracytoplasmic staining. The stained samples were analyzed in a flow cytometer and the percent phosphorylation related to control (100%) was quantified. […] Fifty percent inhibition was achieved by approximately 1 μM peptide
For orientation: A flow cytometer gives signals particle by particle.

The target of data set [2] is T4, ITK (Homo sapiens, UniProt Q08881).
T4 construct: endogenous in cells; host or cells: Jurkat T cells
T4 sequence (Q08881 1-620): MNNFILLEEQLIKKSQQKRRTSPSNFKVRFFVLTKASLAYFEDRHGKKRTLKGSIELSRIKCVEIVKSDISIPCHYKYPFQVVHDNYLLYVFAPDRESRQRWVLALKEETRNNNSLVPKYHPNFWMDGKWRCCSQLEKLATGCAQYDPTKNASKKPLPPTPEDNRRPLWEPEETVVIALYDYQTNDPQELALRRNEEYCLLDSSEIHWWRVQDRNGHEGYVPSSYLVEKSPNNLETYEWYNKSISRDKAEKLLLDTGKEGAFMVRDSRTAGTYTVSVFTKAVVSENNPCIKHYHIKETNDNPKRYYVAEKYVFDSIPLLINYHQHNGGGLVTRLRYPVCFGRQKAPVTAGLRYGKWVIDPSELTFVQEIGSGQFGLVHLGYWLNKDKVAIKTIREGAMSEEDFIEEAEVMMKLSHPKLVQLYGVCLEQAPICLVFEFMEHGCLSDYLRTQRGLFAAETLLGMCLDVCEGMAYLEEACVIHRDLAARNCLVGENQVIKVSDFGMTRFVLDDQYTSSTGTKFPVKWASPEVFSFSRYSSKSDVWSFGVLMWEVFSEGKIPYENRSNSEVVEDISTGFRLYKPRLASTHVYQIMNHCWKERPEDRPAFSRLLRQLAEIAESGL
The experiment in a line: phosphorylation of ITK on Tyr 511 in Jurkat cells (flow cytometry). It counts as cell-based. The settings on record: text does not separate Jurkat and mouse splenocytes, read-out: peptide concentration for fifty percent inhibition of ITK phosphorylation. Here is the method: as §3

The subject of another data set is Jurkat cells. In words: viability measurements on Jurkat cells. It counts as cell-based. Conditions: highest concentration tested.
Data set [3] addresses T5, R9 (nine Arginine amino acids by themselves).
T5 chain: RRRRRRRRR

The target of data set [4] is R9-Scrambled arginine-SLP 76 peptide conjugate (R9-SCR).
For data set [5], the target named is T6, Inducible T cell Kinase (ITK), endogenous in Jurkat T cells (human, UniProt Q08881 1-620).
T6 construct: Endogenous intracellular ITK from Jurkat T cell lysates; The tie rests on Jurkat being a human T cell line
T6 sequence: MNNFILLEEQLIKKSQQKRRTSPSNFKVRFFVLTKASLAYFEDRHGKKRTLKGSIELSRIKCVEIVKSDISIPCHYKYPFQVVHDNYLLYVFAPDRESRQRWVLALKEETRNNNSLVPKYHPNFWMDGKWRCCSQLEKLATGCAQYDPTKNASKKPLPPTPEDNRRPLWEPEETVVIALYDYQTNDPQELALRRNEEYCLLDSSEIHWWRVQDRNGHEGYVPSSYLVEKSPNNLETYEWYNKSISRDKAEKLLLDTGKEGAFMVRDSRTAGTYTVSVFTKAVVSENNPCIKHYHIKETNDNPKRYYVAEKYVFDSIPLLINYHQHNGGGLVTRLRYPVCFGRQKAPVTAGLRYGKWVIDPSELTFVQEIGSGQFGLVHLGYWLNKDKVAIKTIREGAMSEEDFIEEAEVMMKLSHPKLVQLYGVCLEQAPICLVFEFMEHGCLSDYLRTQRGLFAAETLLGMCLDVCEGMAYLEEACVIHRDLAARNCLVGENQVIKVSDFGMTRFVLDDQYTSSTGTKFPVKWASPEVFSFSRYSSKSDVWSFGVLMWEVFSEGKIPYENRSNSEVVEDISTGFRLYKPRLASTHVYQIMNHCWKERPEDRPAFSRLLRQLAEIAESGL
In words: competition in cells: co-IP of ITK with SLP76 from stimulated Jurkat cells against peptide concentration (association index, average of three experiments). Here is the method:
as §1, §2

The target in data set [6] is T6, Inducible T cell Kinase (ITK), …. The experiment in a line: co-IP from TCR-stimulated Jurkat T cell lysates (IP anti-SLP76, IB anti-ITK). The procedure: as §1

For RRRRRRRRRQQPPVPPQRPMA [R9-QQP], the Kd at SH3 domain of ITK was 770 nM. In addition, the inhibition at 1 µM against ITK-SLP76 interaction (1 μM of peptide, Jurkat cells stimulated 1 minute) was about 50%. Moreover, the IC50 at ITK-SLP76 interaction (Jurkat cells, read-out: concentration for 50% inhibition in the ITK-SLP 76 association) is about 1000 nM; on ITK [1], about 1000 nM; at ITK [2], about 1000 nM. In the data set on Jurkat cells, the “toxic effects on Jurkat cells (viability)” value is on record as “no toxic effects”.

B1: ITK, endogenous in mouse splenic lymphocytes (protein)
chain: MNNFILLEEQLIKKSQQKRRTSPSNFKVRFFVLTKASLAYFEDRHGKKRTLKGSIELSRIKCVEIVKSDISIPCHYKYPFQTLVYLQVVHDNYLLYVFAPDCESRQRWVLTLKEETRNNNSLVSKYHPNFWMDGRWRCCSQLEKPAVGCAPYDPSKNASKKPLPPTPEDNRRSFQEPEETLVIALYDYQTNDPQELALRCDEEYYLLDSSEIHWWRVQDKNGHEGYAPSSYLVEKSPNNLETYEWYNKSISRDKAEKLLLDTGKEGAFMVRDSRTPGTYTVSVFTKAIISENPCIKHYHIKETNDSPKRYYVAEKYVFDSIPLLIQYHQYNGGGLVTRLRYPVCSWRQKAPVTAGLRYGKWVIQPSELTFVQEIGSGQFGLVHLGYWLNKDKVAIKTIQEGAMSEEDFIEEAEVMMKLSHPKLVQLYGVCLEQAPICLVFEFMEHGCLSDYLRSQRGLFAAETLLGMCLDVCEGMAYLEKACVIHRDLAARNCLVGENQVIKVSDFGMTRFVLDDQYTSSTGTKFPVKWASPEVFSFSRYSSKSDVWSFGVLMWEVFSEGKIPYENRSNSEVVEDISTGFRLYKPRLASCHVYQIMNHCWKEKPEDRPPFSQLLSQLAEIAEAGL
B1: the “ITK Tyr 511 phosphorylation, flow cytometry, primary mouse splenic lymphocytes” value in data set [3] and in data set [4] was “None of the two control peptides had significant effects on the phosphorylation of ITK in either Jurkat or primary mouse splenic lymphocytes” in each case.

B2: R9-QQP, arginine-SLP76 peptide conjugate RRRRRRRRRQQPPVPPQRPMA (peptide)
peptide: RRRRRRRRRQQPPVPPQRPMA
notes: Synthetic cell-penetrating peptide; It was loaded into Jurkat cells or mouse splenocytes, or injected intraperitoneally into mice; A fluorescein-labelled version was used only for uptake studies, which are not recorded; also called Arg-SLP76 conjugate peptide; polyArg-SLP76 peptide conjugate
With B2, in data set [5], the IC50 is about 1000 nM.

B3: SLP76, endogenous in Jurkat T cells (other, UniProt Q13094 1-533, looked up)
chain: MALRNVPFRSEVLGWDPDSLADYFKKLNYKDCEKAVKKYHIDGARFLNLTENDIQKFPKLRVPILSKLSQEINKNEERRSIFTRKPQVPRFPEETESHEEDNGGWSSFEEDDYESPNDDQDGEDDGDYESPNEEEEAPVEDDADYEPPPSNDEEALQNSILPAKPFPNSNSMYIDRPPSGKTPQQPPVPPQRPMAALPPPPAGRNHSPLPPPQTNHEEPSRSRNHKTAKLPAPSIDRSTKPPLDRSLAPFDREPFTLGKKPPFSDKPSIPAGRSLGEHLPKIQKPPLPPTTERHERSSPLPGKKPPVPKHGWGPDRRENDEDDVHQRPLPQPALLPMSSNTFPSRSTKPSPMNPLPSSHMPGAFSESNSSFPQSASLPPYFSQGPSNRPPIRAEGRNFPLPLPNKPRPPSPAEEENSLNEEWYVSYITRPEAEAALRKINQDGTFLVRDSSKKTTTNPYVLMVLYKDKVYNIQIRYQKESQVYLLGTGLRGKEDFLSVSDIIDYFRKMPLLLIDGKNRGSRYQCTLTHAAGYP
notes: whole, on cells; Endogenous intracellular adaptor protein, immunoprecipitated from Jurkat lysates with anti-SLP76 antibody
For B3, the binding result in data set [6] is recorded as “binds”.
